In US20260130395A1, “Water Dispersible Botanical Compositions” (Aquila Black Limited, priority 2021, published 2026):

Columns and labels:
[1] = Stability of cannabinoid entourage and Vitamin E components of the powder concentrate by LCMSMS; format: physicochemical; conditions: powder stored at 21-25° C.
Experimental: At each time period, 0.05 g of powder was dissolved in 10 ml-15 of ethanol, diluted to fall within the analytical range, and injected into the LCMSMS for analysis.

[2] = Stability of cannabinoid compounds and Vitamin E components in Beverage 1 (AB White) by LCMSMS; format: physicochemical

Cc1c(C)c2c(c(C)c1O)CC[C@@](C)(CCC[C@H](C)CCC[C@H](C)CCCC(C)C)O2 [α-Tocopherol]
Stability of Vitamin Es in Powder Concentrate ([1]; 0 days): 4.85 mg/g powder
Stability of Vitamin Es in Powder Concentrate ([1]; 1 days): 4.89 mg/g powder
Stability of Vitamin Es in Powder Concentrate ([1]; 2 days): 4.79 mg/g powder
Stability of Vitamin Es in Powder Concentrate ([1]; 3 days): 4.69 mg/g powder
Stability of Vitamin Es in Powder Concentrate ([1]; 5 days): 4.99 mg/g powder
Stability of Vitamin Es in Powder Concentrate ([1]; 8 days): 4.69 mg/g powder
Stability of Vitamin Es in Powder Concentrate ([1]; 9 days): 4.75 mg/g powder
Stability of Vitamin Es in Powder Concentrate ([1]; 10 days): 4.77 mg/g powder
Stability of Vitamin Es in Powder Concentrate ([1]; 11 days): 5.04 mg/g powder
Stability of Vitamin Es in Powder Concentrate ([1]; 12 days): 5.01 mg/g powder
Stability of Vitamin Es in Powder Concentrate ([1]; 15 days): 5.07 mg/g powder
Stability of Vitamin Es in Powder Concentrate ([1]; 16 days): 4.96 mg/g powder
Stability of Vitamin Es in Powder Concentrate ([1]; 17 days): 4.94 mg/g powder
Stability of Vitamin Es in Powder Concentrate ([1]; 18 days): 4.77 mg/g powder
Stability of Vitamin Es in Powder Concentrate ([1]; 19 days): 5.04 mg/g powder
Stability of Vitamin Es in Powder Concentrate ([1]; 22 days): 4.94 mg/g powder
Stability of Vitamin Es in Powder Concentrate ([1]; 23 days): 4.91 mg/g powder
Stability of Vitamin Es in Powder Concentrate ([1]; 24 days): 5.00 mg/g powder
Stability of Vitamin Es in Powder Concentrate ([1]; 25 days): 5.06 mg/g powder
Stability of Vitamin Es in Powder Concentrate ([1]; 26 days): 4.84 mg/g powder
Stability of Vitamin Es in Powder Concentrate ([1]; 29 days): 4.85 mg/g powder
Stability of Vitamin Es in Powder Concentrate ([1]; 30 days): 4.83 mg/g powder
Stability of Vitamin Es in Powder Concentrate ([1]; 60 days): 4.91 mg/g powder
Stability of Vitamin Es in Powder Concentrate ([1]; 90 days): 4.96 mg/g powder
Stability of Vitamin Es in Powder Concentrate ([1]; 120 days): 4.93 mg/g powder
Stability of Vitamin Es in Powder Concentrate ([1]; 150 days): 4.69 mg/g powder
Stability of Vitamin Es in Powder Concentrate ([1]; 180 days): 4.70 mg/g powder
Stability of Vitamin Es in Powder Concentrate ([1]; 210 days): 4.84 mg/g powder
Stability of Vitamin Es in Powder Concentrate ([1]; 240 days): 5.03 mg/g powder
Stability of Vitamin Es in Powder Concentrate ([1]; 270 days): 4.78 mg/g powder
Stability of Vitamin Es in Powder Concentrate ([1]; 300 days): 4.81 mg/g powder
Stability of Vitamin Es in Powder Concentrate ([1]; 330 days): 4.81 mg/g powder
Stability of Vitamin Es in Powder Concentrate ([1]; 360 days): 4.83 mg/g powder
Stability of Vitamin Es in Powder Concentrate ([1]; 390 days): 4.91 mg/g powder
Stability of Vitamin Es in Powder Concentrate ([1]; 420 days): 4.69 mg/g powder
Stability of Vitamin Es in Powder Concentrate ([1]; 450 days): 5.00 mg/g powder
Stability of Vitamin Es in Powder Concentrate ([1]; 480 days): 4.98 mg/g powder
Stability of Vitamin Es in Powder Concentrate ([1]; 510 days): 5.02 mg/g powder
Stability of Vitamin Es in Powder Concentrate ([1]; 540 days): 5.03 mg/g powder
Stability of Vitamin Es in Powder Concentrate ([1]; 570 days): 4.72 mg/g powder
Stability of Vitamin Es in AB White ([2]; stored at 8° C., 0 days): 26.1 µg/mL
Stability of Vitamin Es in AB White ([2]; stored at 8° C., 1 days): 24.90 µg/mL
Stability of Vitamin Es in AB White ([2]; stored at 8° C., 2 days): 23.46 µg/mL
Stability of Vitamin Es in AB White ([2]; stored at 8° C., 3 days): 23.21 µg/mL
Stability of Vitamin Es in AB White ([2]; stored at 8° C., 5 days): 23.39 µg/mL
Stability of Vitamin Es in AB White ([2]; stored at 8° C., 8 days): 24.65 µg/mL
Stability of Vitamin Es in AB White ([2]; stored at 8° C., 9 days): 24.42 µg/mL
Stability of Vitamin Es in AB White ([2]; stored at 8° C., 10 days): 24.57 µg/mL
Stability of Vitamin Es in AB White ([2]; stored at 8° C., 11 days): 25.45 µg/mL
Stability of Vitamin Es in AB White ([2]; stored at 8° C., 12 days): 23.97 µg/mL
Stability of Vitamin Es in AB White ([2]; stored at 8° C., 15 days): 25.48 µg/mL
Stability of Vitamin Es in AB White ([2]; stored at 8° C., 16 days): 25.02 µg/mL
Stability of Vitamin Es in AB White ([2]; stored at 8° C., 17 days): 24.17 µg/mL
Stability of Vitamin Es in AB White ([2]; stored at 8° C., 18 days): 23.28 µg/mL
Stability of Vitamin Es in AB White ([2]; stored at 8° C., 19 days): 24.12 µg/mL
Stability of Vitamin Es in AB White ([2]; stored at 8° C., 22 days): 23.51 µg/mL
Stability of Vitamin Es in AB White ([2]; stored at 8° C., 23 days): 24.27 µg/mL
Stability of Vitamin Es in AB White ([2]; stored at 8° C., 24 days): 24.72 µg/mL
Stability of Vitamin Es in AB White ([2]; stored at 8° C., 25 days): 25.28 µg/mL
Stability of Vitamin Es in AB White ([2]; stored at 8° C., 26 days): 25.25 µg/mL
Stability of Vitamin Es in AB White ([2]; stored at 8° C., 29 days): 24.87 µg/mL
Stability of Vitamin Es in AB White ([2]; stored at 8° C., 30 days): 23.64 µg/mL
Stability of Vitamin Es in AB White ([2]; stored at 8° C., 60 days): 22.96 µg/mL
Stability of Vitamin Es in AB White ([2]; stored at 8° C., 90 days): 24.27 µg/mL
Stability of Vitamin Es in AB White ([2]; stored at 8° C., 120 days): 23.01 µg/mL
Stability of Vitamin Es in AB White ([2]; stored at 8° C., 150 days): 24.32 µg/mL
Stability of Vitamin Es in AB White ([2]; stored at 8° C., 180 days): 24.54 µg/mL
Stability of Vitamin Es in AB White ([2]; stored at 8° C., 210 days): 23.71 µg/mL
Stability of Vitamin Es in AB White ([2]; stored at 8° C., 240 days): 22.68 µg/mL
Stability of Vitamin Es in AB White ([2]; stored at 8° C., 270 days): 22.68 µg/mL
Stability of Vitamin Es in AB White ([2]; stored at 8° C., 300 days): 22.76 µg/mL
Stability of Vitamin Es in AB White ([2]; stored at 8° C., 330 days): 23.21 µg/mL
Stability of Vitamin Es in AB White ([2]; stored at 8° C., 360 days): 22.25 µg/mL
Stability of Vitamin Es in AB White ([2]; stored at 8° C., 390 days): 22.45 µg/mL
Stability of Vitamin Es in AB White ([2]; stored at 8° C., 420 days): 22.35 µg/mL
Stability of Vitamin Es in AB White ([2]; stored at 8° C., 450 days): 22.88 µg/mL
Stability of Vitamin Es in AB White ([2]; stored at 8° C., 480 days): 22.05 µg/mL
Stability of Vitamin Es in AB White ([2]; stored at 8° C., 510 days): 21.32 µg/mL
Stability of Vitamin Es in AB White ([2]; stored at 8° C., 540 days): 21.72 µg/mL
Stability of Vitamin Es in AB White ([2]; stored at 8° C., 570 days): 22.00 µg/mL
Stability of Vitamin Es in AB White ([2]; stored at 21-25° C., 0 days): 26.1 µg/mL
Stability of Vitamin Es in AB White ([2]; stored at 21-25° C., 1 days): 25.1 µg/mL
Stability of Vitamin Es in AB White ([2]; stored at 21-25° C., 2 days): 25.5 µg/mL
Stability of Vitamin Es in AB White ([2]; stored at 21-25° C., 3 days): 25.8 µg/mL
Stability of Vitamin Es in AB White ([2]; stored at 21-25° C., 5 days): 25.4 µg/mL
Stability of Vitamin Es in AB White ([2]; stored at 21-25° C., 8 days): 23.9 µg/mL
Stability of Vitamin Es in AB White ([2]; stored at 21-25° C., 9 days): 25.3 µg/mL
Stability of Vitamin Es in AB White ([2]; stored at 21-25° C., 10 days): 26.3 µg/mL
Stability of Vitamin Es in AB White ([2]; stored at 21-25° C., 11 days): 26.0 µg/mL
Stability of Vitamin Es in AB White ([2]; stored at 21-25° C., 12 days): 24.6 µg/mL
Stability of Vitamin Es in AB White ([2]; stored at 21-25° C., 15 days): 23.9 µg/mL
Stability of Vitamin Es in AB White ([2]; stored at 21-25° C., 16 days): 24.2 µg/mL
Stability of Vitamin Es in AB White ([2]; stored at 21-25° C., 17 days): 26.2 µg/mL
Stability of Vitamin Es in AB White ([2]; stored at 21-25° C., 18 days): 25.3 µg/mL
Stability of Vitamin Es in AB White ([2]; stored at 21-25° C., 19 days): 23.8 µg/mL
Stability of Vitamin Es in AB White ([2]; stored at 21-25° C., 22 days): 25.7 µg/mL
Stability of Vitamin Es in AB White ([2]; stored at 21-25° C., 23 days): 23.8 µg/mL
Stability of Vitamin Es in AB White ([2]; stored at 21-25° C., 24 days): 25.8 µg/mL
Stability of Vitamin Es in AB White ([2]; stored at 21-25° C., 25 days): 25.0 µg/mL
Stability of Vitamin Es in AB White ([2]; stored at 21-25° C., 26 days): 24.8 µg/mL
Stability of Vitamin Es in AB White ([2]; stored at 21-25° C., 29 days): 26.1 µg/mL
Stability of Vitamin Es in AB White ([2]; stored at 21-25° C., 30 days): 23.9 µg/mL
Stability of Vitamin Es in AB White ([2]; stored at 21-25° C., 60 days): 25.0 µg/mL
Stability of Vitamin Es in AB White ([2]; stored at 21-25° C., 90 days): 23.7 µg/mL
Stability of Vitamin Es in AB White ([2]; stored at 21-25° C., 120 days): 24.7 µg/mL
Stability of Vitamin Es in AB White ([2]; stored at 21-25° C., 150 days): 24.4 µg/mL
Stability of Vitamin Es in AB White ([2]; stored at 21-25° C., 180 days): 23.6 µg/mL
Stability of Vitamin Es in AB White ([2]; stored at 21-25° C., 210 days): 23.1 µg/mL
Stability of Vitamin Es in AB White ([2]; stored at 21-25° C., 240 days): 24.2 µg/mL
Stability of Vitamin Es in AB White ([2]; stored at 21-25° C., 270 days): 23.1 µg/mL
Stability of Vitamin Es in AB White ([2]; stored at 21-25° C., 300 days): 24.2 µg/mL
Stability of Vitamin Es in AB White ([2]; stored at 21-25° C., 330 days): 24.4 µg/mL
Stability of Vitamin Es in AB White ([2]; stored at 21-25° C., 360 days): 23.6 µg/mL
Stability of Vitamin Es in AB White ([2]; stored at 21-25° C., 390 days): 23.1 µg/mL
Stability of Vitamin Es in AB White ([2]; stored at 21-25° C., 420 days): 22.8 µg/mL
Stability of Vitamin Es in AB White ([2]; stored at 21-25° C., 450 days): 23.4 µg/mL
Stability of Vitamin Es in AB White ([2]; stored at 21-25° C., 480 days): 21.6 µg/mL
Stability of Vitamin Es in AB White ([2]; stored at 21-25° C., 510 days): 21.9 µg/mL
Stability of Vitamin Es in AB White ([2]; stored at 21-25° C., 540 days): 22.0 µg/mL
Stability of Vitamin Es in AB White ([2]; stored at 21-25° C., 570 days): 22.2 µg/mL
